Read-outs that look alike come from different tables or passages of the source.
Legend:
[1] = biological target: human Cereblon WT GST-tagged protein (Homo sapiens (Human), UniProt Q96SW2); test: CRBN binding, HTRF (CEREBLON BINDING kit)
Method: Determination of CRBN-Binding Affinity of Compounds
The CEREBLON BINDING kits (specification: 10,000 tests; product number: Catalog #64BDCRBNPEH; CISBIO company) was used to determine the CRBN binding ability of the compounds to be tested through a HTRF method (homogeneous time-resolved fluorescence). The specific methods are as follows: • 1. […] Then, 2.5 μL of (human Cereblon WT GST-tagged protein) solution was added to each well. Finally, 5 μL of the uniformly mixed thalidomide-Red reagent and GST Eu antibody working solution were added to each of the above wells. […] The blank control wells were sequentially added with 2.5 μL of diluent #9 (1×) solution, 2.5 μL of ligand binding buffer, and 5 μL of uniformly mixed thalidomide-Red reagent and GST Eu antibody working solution. • 4. […] The corresponding CRBN binding inhibition rate was calculated using the following method: […]

MGC80-3 = test: CCK-8 tumor cell proliferation, MGC80-3; format: cell-based, Human; settings: read-out: IC50 for inhibiting the proliferation of tumor cells, MGC80-3
Method: (§1) Determination of half inhibitory concentration (IC50) of the compounds against tumor cells:
(§2) The tumor cells used herein were cultured in a cell culture medium listed in table 6 at 37° C. in an incubator with 5% CO2. Prior to experimentation, all cells used were correctly identified by STR profiling, and tested negative for mycoplasma through routine screenings.
(§3) IC50 values of the compounds of the present disclosure (including the compounds in Table 4 and compounds of examples 1-72) were measured using the Meilun Cell Counting Kit-S kit from Dalian Meilun Biotech Co., Ltd. Assay details are as follows: tumor cells were seeded in a 96-well plate at a density listed in Table 7. After 24 h, 100 μL of the inoculated cells were treated with 0.5 μL of the compounds of the present disclosure (including the compounds in Table 4 and compounds of examples 1-72) at 10 different successively decreasing concentrations (starting at the highest concentration of 10 μM; 5-fold serial dilutions). After the cells were treated with the compounds of the present disclosure for a period of time (the treatment times listed in Table 7), the cell viability detection reagent was added to the culture medium for cell viability assessment according to the instructions provided with the CCK-8 kit. […] The growth inhibition of the compounds of the present disclosure on cells was plotted by Prism Graphpad software, and the IC50 values of the compounds of the present disclosure were calculated therefrom.

Hep3B2.1-7 = test: CCK-8 tumor cell proliferation, Hep3B2.1-7; format: cell-based, Human; settings: Hep3B2.1-7, 96 h, read-out: IC50 for inhibiting the proliferation of tumor cells, Hep3B2.1-7
Method: as §1, §2, §3

LNcap = test: CCK-8 tumor cell proliferation, LNcap; format: cell-based, Human; settings: 96 h, read-out: IC50 for inhibiting the proliferation of tumor cells, LNcap
Method: as §1, §2, §3

MM.1R = test: CCK-8 tumor cell proliferation, MM.1R; format: cell-based; settings: 72 h, read-out: IC50 for inhibiting the proliferation of tumor cells, MM.1R
Method: as §1
(§4) The tumor cells used herein were cultured in a cell culture medium listed in table 6 at 37° C. in an incubator with 5% CO2.
(§5) After the cells were treated with the compounds of the present disclosure for a period of time (the treatment times listed in Table 7), the cell viability detection reagent was added to the culture medium for cell viability assessment according to the instructions provided with the CCK-8 kit. […] The growth inhibition of the compounds of the present disclosure on cells was plotted by Prism Graphpad software, and the IC50 values of the compounds of the present disclosure were calculated therefrom.

DU-145 = test: CCK-8 tumor cell proliferation, DU-145; format: cell-based, Human; settings: DU-145, 96 h, read-out: IC50 for inhibiting the proliferation of tumor cells, DU-145
Method: as §1, §4, §5

WSU-DLCL2 = test: CCK-8 tumor cell proliferation, WSU-DLCL2; format: cell-based, Human; settings: read-out: IC50 for inhibiting the proliferation of tumor cells, WSU-DLCL2
Method: as §1, §4, §5

[2] = Homo sapiens, MGC-803, MGC80-3, 96 h
[3] = Homo sapiens, WSUDLCL2, WSU-DLCL2, 96 h

Chain of human Cereblon WT GST-tagged protein (Q96SW2 whole entry): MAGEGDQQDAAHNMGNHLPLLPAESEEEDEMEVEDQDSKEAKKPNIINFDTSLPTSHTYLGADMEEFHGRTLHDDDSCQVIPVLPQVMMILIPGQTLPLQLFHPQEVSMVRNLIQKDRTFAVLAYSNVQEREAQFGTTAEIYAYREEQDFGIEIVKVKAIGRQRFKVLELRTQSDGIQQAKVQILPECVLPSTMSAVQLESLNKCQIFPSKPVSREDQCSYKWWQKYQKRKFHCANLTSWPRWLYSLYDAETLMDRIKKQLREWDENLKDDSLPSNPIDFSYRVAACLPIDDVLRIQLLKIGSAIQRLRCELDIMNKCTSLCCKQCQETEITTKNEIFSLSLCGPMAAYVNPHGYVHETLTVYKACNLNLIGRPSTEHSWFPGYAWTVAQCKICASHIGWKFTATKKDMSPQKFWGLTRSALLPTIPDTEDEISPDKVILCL

## O=C1CCC(N2C(=O)c3ccc(N4CC5CC(C4)N5)cc3C2=O)C(=O)N1 (stereo not drawn) [GT-03075, 5-(3,6-diazabicyclo[3.1.1]heptan-3-yl)-2-(2,6-dioxopiperidin-3-yl)isoindoline-1,3-dione]
[1]
  IC50: 5.09 µM

## CC1(C)[C@H](NC(=O)c2ccc(N3CCC(CN4C5CC4CN(c4cc6c(cc4F)C(=O)N(C4CCC(=O)NC4=O)C6=O)C5)CC3)nc2)C(C)(C)[C@H]1Oc1ccc(C#N)c(Cl)c1 (stereo partly drawn) [GT-03404, N-((1r,3r)-3-(3-chloro-4-cyanophenoxy)-2,2,4,4-tetramethylcyclobutyl)-6-(4-((3-(2-(2,6-dioxopiperidin-3-yl)-6-fluoro-1,3-dioxoisoindolin-5-yl)-3,6-diazabicyclo[3.1.1]heptan-6-yl)methyl)piperidin-1-yl)nicotinamide]
MGC80-3; [2]
  IC50: 0.1 to 0.5 µM
Hep3B2.1-7; Homo sapiens
  IC50: 0.1 to 0.5 µM
LNcap; Homo sapiens
  IC50: 0.5 to 1 µM

## CC1(C)[C@H](NC(=O)c2ccc(N3CCC(CN4CC5CCC(C4)N5c4ccc5c(c4)C(=O)N(C4CCC(=O)NC4=O)C5=O)CC3)nc2)C(C)(C)[C@H]1Oc1ccc(C#N)c(Cl)c1 (stereo partly drawn) [GT-03425, N-((1r,3r)-3-(3-chloro-4-cyanophenoxy)-2,2,4,4-tetramethylcyclobutyl)-6-(4-((8-(2-(2,6-dioxopiperidin-3-yl)-1,3-dioxoisoindolin-5-yl)-3,8-diazabicyclo[3.2.1]octan-3-yl)methyl)piperidin-1-yl)nicotinamide]
MGC80-3; [2]
  IC50: ≤ 0.05 µM
MM.1R
  IC50: 0.1 to 0.5 µM
DU-145; Homo sapiens
  IC50: 0.5 to 1 µM
WSU-DLCL2; [3]
  IC50: 0.05 to 0.1 µM
Hep3B2.1-7; Homo sapiens
  IC50: ≤ 0.05 µM
LNcap; Homo sapiens
  IC50: 0.05 to 0.1 µM

## CC1(C)[C@H](NC(=O)c2ccc(N3CCC(CN4C5CCC4CN(c4ccc6c(c4)C(=O)N(C4CCC(=O)NC4=O)C6=O)C5)CC3)nc2)C(C)(C)[C@H]1Oc1ccc(C#N)c(Cl)c1 (stereo partly drawn) [GT-03426, N-((1r,3r)-3-(3-chloro-4-cyanophenoxy)-2,2,4,4-tetramethylcyclobutyl)-6-(4-((3-(2-(2,6-dioxopiperidin-3-yl)-1,3-dioxoisoindolin-5-yl)-3,8-diazabicyclo[3.2.1]octan-8-yl)methyl)piperidin-1-yl)nicotinamide]
MGC80-3; [2]
  IC50: 0.05 to 0.1 µM
MM.1R
  IC50: 0.1 to 0.5 µM
Hep3B2.1-7; Homo sapiens
  IC50: ≤ 0.05 µM
LNcap; Homo sapiens
  IC50: 0.05 to 0.1 µM

## CC1(C)[C@H](NC(=O)c2ccc(N3CCC(CN4CC5CC(C4)N5c4ccc5c(c4)C(=O)N(C4CCC(=O)NC4=O)C5=O)CC3)nc2)C(C)(C)[C@H]1Oc1ccc(C#N)c(Cl)c1 (stereo partly drawn) [GT-03427, N-((1r,3r)-3-(3-chloro-4-cyanophenoxy)-2,2,4,4-tetramethylcyclobutyl)-6-(4-((6-(2-(2,6-dioxopiperidin-3-yl)-1,3-dioxoisoindolin-5-yl)-3,6-diazabicyclo[3.1.1]heptan-3-yl)methyl)piperidin-1-yl)nicotinamide]
MGC80-3; [2]
  IC50: 0.1 to 0.5 µM
DU-145; Homo sapiens
  IC50: 1 to 5 µM
WSU-DLCL2; [3]
  IC50: 0.1 to 0.5 µM
LNcap; Homo sapiens
  IC50: 0.5 to 1 µM

## N#Cc1ccc(OC2CCC(NC(=O)c3ccc(N4CC5CCC(C4)N5CC4CCN(c5cc6c(cc5F)C(=O)N(C5CCC(=O)NC5=O)C6=O)CC4)nn3)CC2)cc1Cl (stereo not drawn) [GT-03450, N-((1r,4r)-4-(3-chloro-4-cyanophenoxy)cyclohexyl)-6-(8-((1-(2-(2,6-dioxopiperidin-3-yl)-6-fluoro-1,3-dioxoisoindolin-5-yl)piperidin-4-yl)methyl)-3,8-diazabicyclo[3.2.1]octan-3-yl)pyridazine-3-carboxamide]
MGC80-3; MGC80-3, 96 h
  IC50: 0.1 to 0.5 µM
MM.1R
  IC50: 0.1 to 0.5 µM
DU-145
  IC50: 1 to 5 µM
WSU-DLCL2; WSU-DLCL2, 96 h
  IC50: 0.5 to 1 µM
LNcap
  IC50: 0.1 to 0.5 µM

## N#Cc1ccc(OC2CCC(NC(=O)c3ccc(N4C5CC4CN(CC4CCN(c6cc7c(cc6F)C(=O)N(C6CCC(=O)NC6=O)C7=O)CC4)C5)nn3)CC2)cc1Cl (stereo not drawn) [GT-03451, N-((1r,4r)-4-(3-chloro-4-cyanophenoxy)cyclohexyl)-6-(3-((1-(2-(2,6-dioxopiperidin-3-yl)-6-fluoro-1,3-dioxoisoindolin-5-yl)piperidin-4-yl)methyl)-3,6-diazabicyclo[3.1.1]heptan-6-yl)pyridazine-3-carboxamide]
MGC80-3; MGC80-3, 96 h
  IC50: 0.5 to 1 µM
MM.1R
  IC50: 0.1 to 0.5 µM
DU-145
  IC50: 1 to 5 µM
WSU-DLCL2; WSU-DLCL2, 96 h
  IC50: 0.1 to 0.5 µM
LNcap
  IC50: 0.1 to 0.5 µM

## CC1(C)[C@H](NC(=O)c2ccc(N3CCC(CN4C5CC4CN(c4ccc6c(c4)C(=O)N(C4CCC(=O)NC4=O)C6=O)C5)CC3)nc2)C(C)(C)[C@H]1Oc1ccc(C#N)c(Cl)c1 (stereo partly drawn) [GT-03471, N-((1r,3r)-3-(3-chloro-4-cyanophenoxy)-2,2,4,4-tetramethylcyclobutyl)-6-(4-((3-(2-(2,6-dioxopiperidin-3-yl)-1,3-dioxoisoindolin-5-yl)-3,6-diazabicyclo[3.1.1]heptan-6-yl)methyl)piperidin-1-yl)nicotinamide]
MGC80-3; [2]
  IC50: 0.1 to 0.5 µM
WSU-DLCL2; [3]
  IC50: 1 to 5 µM
Hep3B2.1-7; Homo sapiens
  IC50: 0.1 to 0.5 µM
LNcap; Homo sapiens
  IC50: 0.5 to 1 µM

## CC1(C)[C@H](NC(=O)c2ccc(N3CCC(CN4C5CCC4CN(c4cc6c(cc4F)C(=O)N(C4CCC(=O)NC4=O)C6=O)C5)CC3)nc2)C(C)(C)[C@H]1Oc1ccc(C#N)c(Cl)c1 (stereo partly drawn) [GT-03482, N-((1r,3r)-3-(3-chloro-4-cyanophenoxy)-2,2,4,4-tetramethylcyclobutyl)-6-(4-((3-(2-(2,6-dioxopiperidin-3-yl)-6-fluoro-1,3-dioxoisoindolin-5-yl)-3,8-diazabicyclo[3.2.1]octan-8-yl)methyl)piperidin-1-yl)nicotinamide]
MGC80-3; [2]
  IC50: 0.05 to 0.1 µM
MM.1R
  IC50: 0.1 to 0.5 µM
DU-145; Homo sapiens
  IC50: 0.1 to 0.5 µM
WSU-DLCL2; [3]
  IC50: 0.1 to 0.5 µM
Hep3B2.1-7; Homo sapiens
  IC50: 0.1 to 0.5 µM
LNcap; Homo sapiens
  IC50: 0.05 to 0.1 µM

## N#Cc1ccc(OC2CCC(NC(=O)c3ccc(N4CCC(CN5C6CC5CN(c5cc7c(cc5F)C(=O)N(C5CCC(=O)NC5=O)C7=O)C6)CC4)nn3)CC2)cc1Cl (stereo not drawn) [GT-03487, N-((1r,4r)-4-(3-chloro-4-cyanophenoxy)cyclohexyl)-6-(4-((3-(2-(2,6-dioxopiperidin-3-yl)-6-fluoro-1,3-dioxoisoindolin-5-yl)-3,6-diazabicyclo[3.1.1]heptan-6-yl)methyl)piperidin-1-yl)pyridazine-3-carboxamide]
MGC80-3; MGC80-3, 96 h
  IC50: 0.1 to 0.5 µM
MM.1R
  IC50: 0.1 to 0.5 µM
DU-145
  IC50: 1 to 5 µM
WSU-DLCL2; WSU-DLCL2, 96 h
  IC50: 0.1 to 0.5 µM
LNcap
  IC50: 0.1 to 0.5 µM

## N#Cc1ccc(OC2CCC(NC(=O)c3ccc(N4CCC(CN5C6CCC5CN(c5ccc7c(c5)C(=O)N(C5CCC(=O)NC5=O)C7=O)C6)CC4)nn3)CC2)cc1Cl (stereo not drawn) [GT-03489, N-((1r,4r)-4-(3-chloro-4-cyanophenoxy)cyclohexyl)-6-(4-((3-(2-(2,6-dioxopiperidin-3-yl)-1,3-dioxoisoindolin-5-yl)-3,8-diazabicyclo[3.2.1]octan-8-yl)methyl)piperidin-1-yl)pyridazine-3-carboxamide]
MGC80-3; MGC80-3, 96 h
  IC50: 0.1 to 0.5 µM
MM.1R
  IC50: 0.5 to 1 µM
DU-145
  IC50: 1 to 5 µM
WSU-DLCL2; WSU-DLCL2, 96 h
  IC50: 0.1 to 0.5 µM
Hep3B2.1-7
  IC50: 0.1 to 0.5 µM
LNcap
  IC50: 0.1 to 0.5 µM

## N#Cc1ccc(OC2CCC(NC(=O)c3ccc(N4CCC(CN5C6CC5CN(c5ccc7c(c5)C(=O)N(C5CCC(=O)NC5=O)C7=O)C6)CC4)nn3)CC2)cc1Cl (stereo not drawn) [GT-03490, N-((1r,4r)-4-(3-chloro-4-cyanophenoxy)cyclohexyl)-6-(4-((3-(2-(2,6-dioxopiperidin-3-yl)-1,3-dioxoisoindolin-5-yl)-3,6-diazabicyclo[3.1.1]heptan-6-yl)methyl)piperidin-1-yl)pyridazine-3-carboxamide]
MGC80-3; MGC80-3, 96 h
  IC50: 0.1 to 0.5 µM
MM.1R
  IC50: 0.1 to 0.5 µM
DU-145
  IC50: 1 to 5 µM
WSU-DLCL2; WSU-DLCL2, 96 h
  IC50: 0.1 to 0.5 µM
LNcap
  IC50: 0.1 to 0.5 µM

— patent publication US20250243210A1, “CRBN E3 LIGASE LIGAND COMPOUND, PROTEIN DEGRADER DEVELOPED BASED THEREON AND THEIR APPLICATIONS” (GLUETACS THERAPEUTICS (SHANGHAI) CO., LTD., priority 2021, published 2025)
